According to PubChem BioAssay AID248 (DTP/NCI, 2004):
Several values for one entry are separate records, joined by “and”; a condition that tells them apart may be missing. Equal entries are not always repeated. Inconclusive results and toxic doses are left out.

System: L1210 leukemia ip in BDF1 mice, survival T/C
Test: NCI In Vivo Anticancer Drug Screen. Data for tumor model L1210 Leukemia (intraperitoneal) in B6D2F1 (BDF1) mice
Details: endpoint: mean survival time, higher = longer survival
Procedure, shortened: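 Survival endpoint. Drug-treated group vs vehicle group, expressed as T divided by C. Tumor passaged by transplantation.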

[1] = dose: 50.0 mg/kg/injection, schedule: Q01DX009 (ip), vehicle: saline with Tween-80
[2] = dose: 100.0 mg/kg/injection, schedule: Q01DX009 (ip), vehicle: saline with Tween-80
[3] = dose: 100.0 mg/kg/injection, schedule: Q01DX001 (ip), vehicle: saline
[4] = dose: 200.0 mg/kg/injection, schedule: Q01DX001 (ip), vehicle: saline
[5] = dose: 400.0 mg/kg/injection, schedule: Q01DX001 (ip), vehicle: saline
[6] = dose: 100.0 mg/kg/injection, schedule: Q04DX003 (ip), vehicle: Klucel (hydroxypropylcellulose) (HPC)
[7] = dose: 200.0 mg/kg/injection, schedule: Q04DX003 (ip), vehicle: Klucel (hydroxypropylcellulose) (HPC)
[8] = dose: 400.0 mg/kg/injection, schedule: Q04DX003 (ip), vehicle: Klucel (hydroxypropylcellulose) (HPC)
[9] = dose: 50.0 mg/kg/injection, schedule: Q04DX002 (ip), vehicle: saline with Tween-80
[10] = dose: 100.0 mg/kg/injection, schedule: Q04DX002 (ip), vehicle: saline with Tween-80
[11] = dose: 50.0 mg/kg/injection, schedule: Q01DX001 (ip), vehicle: saline
[12] = dose: 100.0 mg/kg/injection, schedule: Q04DX003 (ip), vehicle: saline with Tween-80
[13] = dose: 200.0 mg/kg/injection, schedule: Q04DX003 (ip), vehicle: saline with Tween-80
[14] = dose: 100.0 mg/kg/injection, schedule: Q01DX001 (ip), vehicle: Klucel (hydroxypropylcellulose) (HPC)
[15] = dose: 200.0 mg/kg/injection, schedule: Q01DX001 (ip), vehicle: Klucel (hydroxypropylcellulose) (HPC)
[16] = dose: 400.0 mg/kg/injection, schedule: Q01DX001 (ip), vehicle: Klucel (hydroxypropylcellulose) (HPC)

CC(=O)c1cc(O)ccc1O
T/C (dose: 25.0 mg/kg/injection, schedule: Q01DX009 (ip), vehicle: saline with Tween-80): 96 % of control | T/C [1]: 98 % of control | T/C [2]: 98 % of control and 86 % of control | T/C (dose: 400.0 mg/kg/injection, schedule: Q01DX009 (ip), vehicle: saline with Tween-80): 91 % of control

O=[N+]([O-])c1ccnc(NC2CCCCC2)c1
T/C [3]: 97 % of control | T/C [4]: 96 % of control | T/C [5]: 96 % of control

CSc1ccc(C2CCCCC2OS(C)(=O)=O)cc1 (stereo not given)
T/C [6]: 95 % of control | T/C [7]: 92 % of control | T/C [8]: 95 % of control

CC([NH-])C(=O)O.CC([NH-])C(=O)O.CC([NH-])C(=O)O.[Co+3] (stereo not given)
T/C (dose: 25.0 mg/kg/injection, schedule: Q04DX002 (ip), vehicle: saline with Tween-80): 115 % of control | T/C (dose: 50.0 mg/kg/injection, schedule: Q01DX009 (ip), vehicle: water): 103 % of control | T/C [9]: 98 % of control | T/C (dose: 100.0 mg/kg/injection, schedule: Q01DX009 (ip), vehicle: water): 118 % of control | T/C [10]: 115 % of control

CC(C)N1CCC1C (stereo not given)
T/C (dose: 100.0 mg/kg/injection, schedule: Q04DX003 (ip), vehicle: acetone): 96 % of control

O=C(O)c1cccnc1Cl
T/C [11]: 96 % of control | T/C [3]: 93 % of control | T/C [6]: 96 % of control | T/C [12]: 105 % of control | T/C [4]: 100 % of control | T/C [7]: 97 % of control | T/C [13]: 105 % of control | T/C [5]: 106 % of control | T/C [8]: 91 % of control | T/C (dose: 400.0 mg/kg/injection, schedule: Q04DX003 (ip), vehicle: saline with Tween-80): 106 % of control

Cc1ccn(C)n1
T/C (dose: 100.0 mg/kg/injection, schedule: Q04DX002 (ip), vehicle: saline): 103 % of control | T/C (dose: 200.0 mg/kg/injection, schedule: Q04DX002 (ip), vehicle: saline): 97 % of control | T/C (dose: 400.0 mg/kg/injection, schedule: Q04DX002 (ip), vehicle: saline): 93 % of control

OCC1OC(n2ccc3ccc(F)cc32)C(O)C1O (stereo not given)
T/C (dose: 60.0 mg/kg/injection, schedule: Q01DX001 (ip), vehicle: saline): 97 % of control | T/C (dose: 120.0 mg/kg/injection, schedule: Q01DX001 (ip), vehicle: saline): 108 % of control

CC12CC(C3(O)C(=O)Nc4ccccc43)C(=O)CC1CCC1C2CCC2(C)C(OC(=O)c3ccccc3)CCC12 (stereo not given)
T/C (dose: 50.0 mg/kg/injection, schedule: Q01DX009 (ip), vehicle: Klucel (hydroxypropylcellulose) (HPC)): 93 % of control | T/C (dose: 100.0 mg/kg/injection, schedule: Q01DX009 (ip), vehicle: Klucel (hydroxypropylcellulose) (HPC)): 101 % of control | T/C (dose: 200.0 mg/kg/injection, schedule: Q01DX009 (ip), vehicle: Klucel (hydroxypropylcellulose) (HPC)): 101 % of control

CC(c1ccc(Br)cc1)N(C)C (stereo not given)
T/C (dose: 10.0 mg/kg/injection, schedule: Q01DX001 (ip), vehicle: saline): 102 % of control | T/C (dose: 20.0 mg/kg/injection, schedule: Q01DX001 (ip), vehicle: saline): 93 % of control | T/C (dose: 40.0 mg/kg/injection, schedule: Q01DX001 (ip), vehicle: saline): 98 % of control | T/C (dose: 80.0 mg/kg/injection, schedule: Q01DX001 (ip), vehicle: saline): 98 % of control

NS(=O)(=O)c1ccc(Cc2[nH]c(=O)[nH]c(=O)c2Br)cc1
T/C (dose: 25.0 mg/kg/injection, schedule: Q01DX001 (ip), vehicle: saline): 101 % of control | T/C [11]: 95 % of control | T/C [3]: 101 % of control

O=C1C(Br)=C(Br)C(=O)c2ccccc21
T/C [11]: 106 % of control | T/C [3]: 110 % of control

COc1ccccc1NC(=O)Nc1c(C)cccc1C
T/C (dose: 100.0 mg/kg/injection, schedule: Q01DX009 (ip), vehicle: gum acacia): 97 % of control | T/C (dose: 100.0 mg/kg/injection, schedule: Q04DX003 (ip), vehicle: gum acacia): 98 % of control | T/C (dose: 200.0 mg/kg/injection, schedule: Q01DX009 (ip), vehicle: gum acacia): 88 % of control | T/C (dose: 200.0 mg/kg/injection, schedule: Q04DX003 (ip), vehicle: gum acacia): 93 % of control | T/C (dose: 400.0 mg/kg/injection, schedule: Q01DX009 (ip), vehicle: gum acacia): 90 % of control | T/C (dose: 400.0 mg/kg/injection, schedule: Q04DX003 (ip), vehicle: gum acacia): 94 % of control

O=C1c2ccccc2C(=O)N1C1C=CC=CC=C1
T/C [14]: 95 % of control | T/C [6]: 91 % of control | T/C [15]: 93 % of control | T/C [7]: 91 % of control | T/C [16]: 90 % of control | T/C [8]: 93 % of control

COC(=O)C1=C(\O)CCCC/C=C\1C(=O)OC
T/C (dose: 100.0 mg/kg/injection, schedule: Q04DX002 (ip), vehicle: Klucel (hydroxypropylcellulose) (HPC)): 87 % of control | T/C (dose: 200.0 mg/kg/injection, schedule: Q04DX002 (ip), vehicle: Klucel (hydroxypropylcellulose) (HPC)): 97 % of control | T/C (dose: 400.0 mg/kg/injection, schedule: Q04DX002 (ip), vehicle: Klucel (hydroxypropylcellulose) (HPC)): 107 % of control

O=C1CCC2C1CC1CC3C(=O)CCC3C12 (stereo not given)
T/C [9]: 113 % of control | T/C [10]: 98 % of control

Cc1ccc(S(=O)(=O)OCC2C3CCC4C3C(C)(C)CCCC24C)cc1 (stereo not given)
T/C [14]: 107 % of control | T/C [15]: 95 % of control | T/C [16]: 90 % of control

CCNC(=O)CCCC(=O)OC
T/C [3]: 94 % of control | T/C [4]: 103 % of control | T/C [5]: 97 % of control

CCOC(=O)C(NC(=O)NS(=O)(=O)c1ccc(C)cc1)C(=O)OCC
T/C [14]: 91 % of control | T/C [15]: 92 % of control | T/C [16]: 91 % of control

Oc1cc2ccc3c(c2cc1O)CCc1cn[nH]c1-3
T/C (dose: 100.0 mg/kg/injection, schedule: Q01DX001 (ip), vehicle: saline with Tween-80): 92 % of control | T/C (dose: 400.0 mg/kg/injection, schedule: Q01DX001 (ip), vehicle: saline with Tween-80): 92 % of control

CC(=O)NCCCC(=O)O
T/C (dose: 100.0 mg/kg/injection, schedule: Q04DX003 (ip), vehicle: saline): 101 % of control | T/C (dose: 200.0 mg/kg/injection, schedule: Q04DX003 (ip), vehicle: saline): 103 % of control | T/C (dose: 400.0 mg/kg/injection, schedule: Q04DX003 (ip), vehicle: saline): 100 % of control

COCCCN=C(N)c1ccc(NC(=O)c2ccc(C(=O)Nc3ccc(C(N)=NCCCOC)cc3)c(Cl)c2)cc1
T/C (dose: 0.47 mg/kg/injection, schedule: Q01DX Z (ip), vehicle: saline): 92 % of control | T/C (dose: 0.94 mg/kg/injection, schedule: Q01DX Z (ip), vehicle: saline): 91 % of control | T/C (dose: 1.88 mg/kg/injection, schedule: Q01DX Z (ip), vehicle: saline): 94 % of control | T/C (dose: 3.75 mg/kg/injection, schedule: Q01DX Z (ip), vehicle: saline): 111 % of control | T/C (dose: 7.5 mg/kg/injection, schedule: Q01DX Z (ip), vehicle: saline): 171 % of control | T/C (dose: 7.5 mg/kg/injection, schedule: Q01DX Z (oral), vehicle: saline): 103 % of control | T/C (dose: 15.0 mg/kg/injection, schedule: Q01DX Z (ip), vehicle: saline): 89 % of control | T/C (dose: 15.0 mg/kg/injection, schedule: Q01DX Z (oral), vehicle: saline): 111 % of control | T/C (dose: 30.0 mg/kg/injection, schedule: Q01DX Z (oral), vehicle: saline): 94 % of control | T/C (dose: 60.0 mg/kg/injection, schedule: Q01DX Z (oral), vehicle: saline): 102 % of control

CC(C)=CCc1cccc(C)c1
T/C [1]: 94 % of control | T/C [2]: 98 % of control | T/C (dose: 200.0 mg/kg/injection, schedule: Q01DX009 (ip), vehicle: saline with Tween-80): 105 % of control

COCn1cnc2c(F)ncnc21
T/C (dose: 6.25 mg/kg/injection, schedule: Q01DX009 (ip), vehicle: saline): 94 % of control | T/C (dose: 6.25 mg/kg/injection, schedule: Q04DX003 (ip), vehicle: saline): 101 % of control | T/C (dose: 12.5 mg/kg/injection, schedule: Q01DX009 (ip), vehicle: saline): 100 % of control | T/C (dose: 12.5 mg/kg/injection, schedule: Q04DX003 (ip), vehicle: saline): 104 % of control | T/C (dose: 25.0 mg/kg/injection, schedule: Q01DX009 (ip), vehicle: saline): 101 % of control | T/C (dose: 25.0 mg/kg/injection, schedule: Q04DX003 (ip), vehicle: saline): 102 % of control

O=C(O)CC1(C(=O)O)CC2(Cl)C(Cl)=C(Cl)C1(Cl)C2(Cl)Cl (stereo not given)
T/C [12]: 107 % of control | T/C [13]: 112 % of control
